Experimental data reported in the OligoGym collection.
Oligonucleotides are given in HELM: sugar(base)linkage, 5' to 3'; d 2'-deoxyribose, r ribose, m 2'-O-methylribose, p phosphate. ss, as = sense and antisense strand

Target: Mmp7 (rat)
Assay: reporter assay of Huesken 2005
Conditions: siRNA
Also: test concentration or dose not given here.

Question: Which normalised inhibition (eCFP-eYFP dual reporter) does the source give for “RNA1{r(A)p.r(A)p.r(G)p.r(G)p.r(C)p.r(C)p.r(A)p.r(C)p.r(C)p.r(A)p.r(G)p.r(U)p.r(G)p.r(C)p.r(A)p.r(G)p.r(U)p.r(G)p.r(G)p.d(T)p.d(T)}|RNA2{r(C)p.r(C)p.r(A)p.r(C)p.r(U)p.r(G)p.r(C)p.r(A)p.r(C)p.r(U)p.r(G)p.r(G)p.r(U)p.r(G)p.r(G)p.r(C)p.r(C)p.r(U)p.r(U)p.d(C)p.d(T)}$$$RNA1{StrandType:ss}|RNA2{StrandType:as}$” here?
Answer: 22.3%

Question: With “RNA1{r(U)p.r(C)p.r(U)p.r(G)p.r(U)p.r(U)p.r(C)p.r(C)p.r(C)p.r(A)p.r(G)p.r(U)p.r(U)p.r(C)p.r(U)p.r(G)p.r(U)p.r(G)p.r(A)p.d(T)p.d(T)}|RNA2{r(U)p.r(C)p.r(A)p.r(C)p.r(A)p.r(G)p.r(A)p.r(A)p.r(C)p.r(U)p.r(G)p.r(G)p.r(G)p.r(A)p.r(A)p.r(C)p.r(A)p.r(G)p.r(A)p.d(A)p.d(G)}$$$RNA1{StrandType:ss}|RNA2{StrandType:as}$” as the substance, how does the normalised inhibition (eCFP-eYFP dual reporter) read?
Answer: 99.6%

Question: “RNA1{r(G)p.r(C)p.r(C)p.r(A)p.r(C)p.r(U)p.r(C)p.r(U)p.r(C)p.r(U)p.r(G)p.r(G)p.r(G)p.r(U)p.r(C)p.r(U)p.r(G)p.r(G)p.r(G)p.d(T)p.d(T)}|RNA2{r(C)p.r(C)p.r(C)p.r(A)p.r(G)p.r(A)p.r(C)p.r(C)p.r(C)p.r(A)p.r(G)p.r(A)p.r(G)p.r(A)p.r(G)p.r(U)p.r(G)p.r(G)p.r(C)p.d(C)p.d(A)}$$$RNA1{StrandType:ss}|RNA2{StrandType:as}$” was tested. Which normalised inhibition (eCFP-eYFP dual reporter) did it give?
Answer: 63.3%

Question: With “RNA1{r(U)p.r(A)p.r(G)p.r(G)p.r(A)p.r(A)p.r(A)p.r(U)p.r(U)p.r(U)p.r(U)p.r(A)p.r(C)p.r(C)p.r(U)p.r(U)p.r(C)p.r(A)p.r(C)p.d(T)p.d(T)}|RNA2{r(G)p.r(U)p.r(G)p.r(A)p.r(A)p.r(G)p.r(G)p.r(U)p.r(A)p.r(A)p.r(A)p.r(A)p.r(U)p.r(U)p.r(U)p.r(C)p.r(C)p.r(U)p.r(A)p.d(A)p.d(G)}$$$RNA1{StrandType:ss}|RNA2{StrandType:as}$” as the substance, how does the normalised inhibition (eCFP-eYFP dual reporter) read?
Answer: 86.2%

Question: “RNA1{r(A)p.r(A)p.r(G)p.r(C)p.r(C)p.r(C)p.r(A)p.r(G)p.r(G)p.r(U)p.r(G)p.r(U)p.r(G)p.r(G)p.r(A)p.r(G)p.r(U)p.r(G)p.r(C)p.d(T)p.d(T)}|RNA2{r(G)p.r(C)p.r(A)p.r(C)p.r(U)p.r(C)p.r(C)p.r(A)p.r(C)p.r(A)p.r(C)p.r(C)p.r(U)p.r(G)p.r(G)p.r(G)p.r(C)p.r(U)p.r(U)p.d(C)p.d(T)}$$$RNA1{StrandType:ss}|RNA2{StrandType:as}$” was tested. Which normalised inhibition (eCFP-eYFP dual reporter) did it give?
Answer: 47.5%

Question: Which normalised inhibition (eCFP-eYFP dual reporter) does the source give for “RNA1{r(C)p.r(C)p.r(A)p.r(G)p.r(G)p.r(U)p.r(G)p.r(U)p.r(G)p.r(G)p.r(A)p.r(G)p.r(U)p.r(G)p.r(C)p.r(C)p.r(A)p.r(G)p.r(A)p.d(T)p.d(T)}|RNA2{r(U)p.r(C)p.r(U)p.r(G)p.r(G)p.r(C)p.r(A)p.r(C)p.r(U)p.r(C)p.r(C)p.r(A)p.r(C)p.r(A)p.r(C)p.r(C)p.r(U)p.r(G)p.r(G)p.d(G)p.d(C)}$$$RNA1{StrandType:ss}|RNA2{StrandType:as}$” here?
Answer: 85.6%

Question: “RNA1{r(G)p.r(C)p.r(C)p.r(A)p.r(G)p.r(A)p.r(U)p.r(G)p.r(U)p.r(U)p.r(G)p.r(C)p.r(A)p.r(G)p.r(A)p.r(A)p.r(U)p.r(U)p.r(C)p.d(T)p.d(T)}|RNA2{r(G)p.r(A)p.r(A)p.r(U)p.r(U)p.r(C)p.r(U)p.r(G)p.r(C)p.r(A)p.r(A)p.r(C)p.r(A)p.r(U)p.r(C)p.r(U)p.r(G)p.r(G)p.r(C)p.d(A)p.d(C)}$$$RNA1{StrandType:ss}|RNA2{StrandType:as}$” was tested. Which normalised inhibition (eCFP-eYFP dual reporter) did it give?
Answer: 100%

Question: Which normalised inhibition (eCFP-eYFP dual reporter) does the source give for “RNA1{r(G)p.r(U)p.r(G)p.r(A)p.r(G)p.r(G)p.r(A)p.r(C)p.r(U)p.r(C)p.r(A)p.r(G)p.r(G)p.r(C)p.r(G)p.r(U)p.r(G)p.r(A)p.r(A)p.d(T)p.d(T)}|RNA2{r(U)p.r(U)p.r(C)p.r(A)p.r(C)p.r(G)p.r(C)p.r(C)p.r(U)p.r(G)p.r(A)p.r(G)p.r(U)p.r(C)p.r(C)p.r(U)p.r(C)p.r(A)p.r(C)p.d(C)p.d(A)}$$$RNA1{StrandType:ss}|RNA2{StrandType:as}$” here?
Answer: 89.4%

Question: Which normalised inhibition (eCFP-eYFP dual reporter) does the source give for “RNA1{r(C)p.r(C)p.r(C)p.r(U)p.r(A)p.r(C)p.r(C)p.r(U)p.r(A)p.r(U)p.r(C)p.r(A)p.r(A)p.r(G)p.r(G)p.r(A)p.r(G)p.r(A)p.r(U)p.d(T)p.d(T)}|RNA2{r(A)p.r(U)p.r(C)p.r(U)p.r(C)p.r(C)p.r(U)p.r(U)p.r(G)p.r(A)p.r(U)p.r(A)p.r(G)p.r(G)p.r(U)p.r(A)p.r(G)p.r(G)p.r(G)p.d(T)p.d(A)}$$$RNA1{StrandType:ss}|RNA2{StrandType:as}$” here?
Answer: 102%

Question: With “RNA1{r(C)p.r(U)p.r(G)p.r(A)p.r(G)p.r(G)p.r(G)p.r(A)p.r(A)p.r(A)p.r(U)p.r(G)p.r(C)p.r(A)p.r(G)p.r(A)p.r(A)p.r(G)p.r(U)p.d(T)p.d(T)}|RNA2{r(A)p.r(C)p.r(U)p.r(U)p.r(C)p.r(U)p.r(G)p.r(C)p.r(A)p.r(U)p.r(U)p.r(U)p.r(C)p.r(C)p.r(C)p.r(U)p.r(C)p.r(A)p.r(G)p.d(T)p.d(T)}$$$RNA1{StrandType:ss}|RNA2{StrandType:as}$” as the substance, how does the normalised inhibition (eCFP-eYFP dual reporter) read?
Answer: 83.4%

Question: How did the normalised inhibition (eCFP-eYFP dual reporter) turn out when “RNA1{r(G)p.r(A)p.r(A)p.r(C)p.r(U)p.r(U)p.r(C)p.r(C)p.r(U)p.r(G)p.r(U)p.r(U)p.r(U)p.r(G)p.r(U)p.r(U)p.r(G)p.r(C)p.r(C)p.d(T)p.d(T)}|RNA2{r(G)p.r(G)p.r(C)p.r(A)p.r(A)p.r(C)p.r(A)p.r(A)p.r(A)p.r(C)p.r(A)p.r(G)p.r(G)p.r(A)p.r(A)p.r(G)p.r(U)p.r(U)p.r(C)p.d(A)p.d(C)}$$$RNA1{StrandType:ss}|RNA2{StrandType:as}$” was run?
Answer: 53.6%

Question: For “RNA1{r(C)p.r(A)p.r(A)p.r(A)p.r(C)p.r(A)p.r(G)p.r(U)p.r(C)p.r(C)p.r(U)p.r(A)p.r(A)p.r(G)p.r(U)p.r(G)p.r(G)p.r(C)p.r(A)p.d(T)p.d(T)}|RNA2{r(U)p.r(G)p.r(C)p.r(C)p.r(A)p.r(C)p.r(U)p.r(U)p.r(A)p.r(G)p.r(G)p.r(A)p.r(C)p.r(U)p.r(G)p.r(U)p.r(U)p.r(U)p.r(G)p.d(G)p.d(C)}$$$RNA1{StrandType:ss}|RNA2{StrandType:as}$”, which normalised inhibition (eCFP-eYFP dual reporter) is on record?
Answer: 81.2%

Question: Which normalised inhibition (eCFP-eYFP dual reporter) does the source give for “RNA1{r(G)p.r(G)p.r(U)p.r(C)p.r(U)p.r(G)p.r(G)p.r(G)p.r(U)p.r(C)p.r(A)p.r(C)p.r(U)p.r(C)p.r(U)p.r(U)p.r(C)p.r(U)p.r(G)p.d(T)p.d(T)}|RNA2{r(C)p.r(A)p.r(G)p.r(A)p.r(A)p.r(G)p.r(A)p.r(G)p.r(U)p.r(G)p.r(A)p.r(C)p.r(C)p.r(C)p.r(A)p.r(G)p.r(A)p.r(C)p.r(C)p.d(C)p.d(A)}$$$RNA1{StrandType:ss}|RNA2{StrandType:as}$” here?
Answer: 73.8%

Question: “RNA1{r(G)p.r(U)p.r(C)p.r(A)p.r(U)p.r(G)p.r(G)p.r(A)p.r(G)p.r(A)p.r(U)p.r(A)p.r(A)p.r(U)p.r(G)p.r(C)p.r(A)p.r(G)p.r(A)p.d(T)p.d(T)}|RNA2{r(U)p.r(C)p.r(U)p.r(G)p.r(C)p.r(A)p.r(U)p.r(U)p.r(A)p.r(U)p.r(C)p.r(U)p.r(C)p.r(C)p.r(A)p.r(U)p.r(G)p.r(A)p.r(C)p.d(A)p.d(C)}$$$RNA1{StrandType:ss}|RNA2{StrandType:as}$” was tested. Which normalised inhibition (eCFP-eYFP dual reporter) did it give?
Answer: 115%

Question: With “RNA1{r(U)p.r(U)p.r(C)p.r(G)p.r(C)p.r(A)p.r(A)p.r(G)p.r(G)p.r(G)p.r(G)p.r(A)p.r(G)p.r(A)p.r(U)p.r(C)p.r(A)p.r(C)p.r(G)p.d(T)p.d(T)}|RNA2{r(C)p.r(G)p.r(U)p.r(G)p.r(A)p.r(U)p.r(C)p.r(U)p.r(C)p.r(C)p.r(C)p.r(C)p.r(U)p.r(U)p.r(G)p.r(C)p.r(G)p.r(A)p.r(A)p.d(G)p.d(C)}$$$RNA1{StrandType:ss}|RNA2{StrandType:as}$” as the substance, how does the normalised inhibition (eCFP-eYFP dual reporter) read?
Answer: 26.8%

Question: With “RNA1{r(G)p.r(G)p.r(G)p.r(A)p.r(G)p.r(A)p.r(U)p.r(C)p.r(A)p.r(C)p.r(G)p.r(G)p.r(A)p.r(G)p.r(A)p.r(C)p.r(A)p.r(A)p.r(C)p.d(T)p.d(T)}|RNA2{r(G)p.r(U)p.r(U)p.r(G)p.r(U)p.r(C)p.r(U)p.r(C)p.r(C)p.r(G)p.r(U)p.r(G)p.r(A)p.r(U)p.r(C)p.r(U)p.r(C)p.r(C)p.r(C)p.d(C)p.d(T)}$$$RNA1{StrandType:ss}|RNA2{StrandType:as}$” as the substance, how does the normalised inhibition (eCFP-eYFP dual reporter) read?
Answer: 94.2%

Question: How did the normalised inhibition (eCFP-eYFP dual reporter) turn out when “RNA1{r(A)p.r(G)p.r(U)p.r(G)p.r(C)p.r(A)p.r(G)p.r(U)p.r(G)p.r(G)p.r(A)p.r(C)p.r(A)p.r(A)p.r(A)p.r(C)p.r(U)p.r(G)p.r(A)p.d(T)p.d(T)}|RNA2{r(U)p.r(C)p.r(A)p.r(G)p.r(U)p.r(U)p.r(U)p.r(G)p.r(U)p.r(C)p.r(C)p.r(A)p.r(C)p.r(U)p.r(G)p.r(C)p.r(A)p.r(C)p.r(U)p.d(G)p.d(G)}$$$RNA1{StrandType:ss}|RNA2{StrandType:as}$” was run?
Answer: 110%

Question: How did the normalised inhibition (eCFP-eYFP dual reporter) turn out when “RNA1{r(U)p.r(G)p.r(G)p.r(A)p.r(G)p.r(U)p.r(G)p.r(C)p.r(C)p.r(A)p.r(G)p.r(A)p.r(U)p.r(G)p.r(U)p.r(U)p.r(G)p.r(C)p.r(A)p.d(T)p.d(T)}|RNA2{r(U)p.r(G)p.r(C)p.r(A)p.r(A)p.r(C)p.r(A)p.r(U)p.r(C)p.r(U)p.r(G)p.r(G)p.r(C)p.r(A)p.r(C)p.r(U)p.r(C)p.r(C)p.r(A)p.d(C)p.d(A)}$$$RNA1{StrandType:ss}|RNA2{StrandType:as}$” was run?
Answer: 91.3%

Question: “RNA1{r(U)p.r(U)p.r(C)p.r(A)p.r(G)p.r(A)p.r(A)p.r(G)p.r(A)p.r(C)p.r(U)p.r(U)p.r(C)p.r(A)p.r(G)p.r(U)p.r(C)p.r(U)p.r(U)p.d(T)p.d(T)}|RNA2{r(A)p.r(A)p.r(G)p.r(A)p.r(C)p.r(U)p.r(G)p.r(A)p.r(A)p.r(G)p.r(U)p.r(C)p.r(U)p.r(U)p.r(C)p.r(U)p.r(G)p.r(A)p.r(A)p.d(T)p.d(G)}$$$RNA1{StrandType:ss}|RNA2{StrandType:as}$” was tested. Which normalised inhibition (eCFP-eYFP dual reporter) did it give?
Answer: 92.5%

Question: For “RNA1{r(A)p.r(U)p.r(G)p.r(A)p.r(G)p.r(U)p.r(A)p.r(C)p.r(U)p.r(G)p.r(G)p.r(A)p.r(C)p.r(G)p.r(G)p.r(A)p.r(U)p.r(G)p.r(G)p.d(T)p.d(T)}|RNA2{r(C)p.r(C)p.r(A)p.r(U)p.r(C)p.r(C)p.r(G)p.r(U)p.r(C)p.r(C)p.r(A)p.r(G)p.r(U)p.r(A)p.r(C)p.r(U)p.r(C)p.r(A)p.r(U)p.d(C)p.d(C)}$$$RNA1{StrandType:ss}|RNA2{StrandType:as}$”, which normalised inhibition (eCFP-eYFP dual reporter) is on record?
Answer: 41.9%
